Results on seven molecules are retold here after PubChem BioAssay (NCI).

Assay in all cases: NCI anticancer screen, dose series, 48 h
For assay [1], the system named is A498 renal.
The test system of assay [2] is CAKI-1 renal.
The test system of assay [3] is CCRF-CEM leukemia.
Assay [4] deals with HCT-15 colon.
Assay [5] relates to KM12 colon.
Assay [6] has as its system NCI-H522 lung.
The test system of assay [7] is RPMI-8226 leukemia.
Assay [8] relates to SK-MEL-28 melanoma.
The subject of assay [9] is SK-MEL-5 melanoma.
For assay [10], the system named is SR leukemia.

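Following 48 hours of exposure in 96-well plates, responses at five concentrations were used to interpolate endpoints linearly. GI50 is the concentration that inhibits growth by half. The concentration for full growth arrest is given as TGI.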 Bounds are passed on as bounds.

As for `COc1ccc2c(c1)C(=O)/C(=C/c1ccc(OCC(=O)c3ccc(Cl)cc3)cc1)O2`, the GI50 was 48.9 µM in [1]; 16.4 µM in [2]; 1.92 µM in assay [3]; 12.6 µM in [4]; 15.6 µM in assay [5]; 3.77 µM in assay [6]. Besides, the GI50 in assay [7] is 3.87 µM; in [8], 15.5 µM; in assay [9], 17.2 µM; in assay [10], 2.15 µM. Moreover, the TGI in assay [1] was more than 100 µM; in [2], 90.1 µM; in assay [3], 4.75 µM; in [4] it was 26.3 µM; in assay [5] it was 30.1 µM; in [6] it was 15.7 µM. The TGI in assay [7] worked out at 21.6 µM; in assay [8], 30.1 µM; in [9] it was 59.3 µM; in [10], 6.34 µM.
With `Cn1cc(-c2csc(-c3cn(C)c4ncccc34)n2)c2ccccc21`, the GI50 in assay [1] was 0.496 µM; in [2] it was 0.373 µM; in assay [3], 0.368 µM; in assay [4] it was 0.23 µM; in [5] it was 0.242 µM; in [6] it was 0.0889 µM. The GI50 in assay [7] was 0.396 µM; in assay [8], 1.23 µM; in assay [9], 0.286 µM; in [10], 0.0961 µM. Moreover, the TGI in assay [1] was 8.65 µM; in assay [2] it was 32.5 µM; in assay [3] it was more than 61.6 µM; in [4], more than 100 µM; in assay [5] it was more than 76.7 µM; in assay [6] it was 1.16 µM. The TGI in [7] is 25.3 µM; in assay [8], more than 100 µM; in [9], 16.2 µM; in assay [10] it was more than 43.9 µM.
For `CC1(C)CCC(CN2CCN(c3ccc(C(=O)NS(=O)(=O)c4ccc(NCC5CCOCC5)c([N+](=O)[O-])c4)c(Oc4cnc5[nH]ccc5c4)c3)CC2)=C(c2ccc(Cl)cc2)C1`, the GI50 is 1.58 µM in assay [1]; 2.91 µM in assay [2]; 2.32 µM in [3]; 3.1 µM in assay [4]; 2.98 µM in [5]; 2.46 µM in assay [6]. The GI50 in [7] was 1.78 µM; in [8], 1.41 µM; in assay [9], 1.67 µM; in assay [10], 3.21 µM. Also, the TGI in assay [1] amounted to 4.43 µM; in assay [2], 10.7 µM; in assay [3] it was 7.29 µM; in assay [4], 11.2 µM; in assay [5], 9.86 µM; in assay [6], 7.23 µM. Further, the TGI in assay [7] was found to be 5.54 µM; in assay [8], 6.79 µM; in assay [9] it was 3.09 µM; in [10] it was 13 µM.
With `CCN(CC)c1ccc(/C=C/C2=[N+](C)c3ccccc3C2(C)C)cc1`, the GI50 in assay [1] is 1.65 µM; in assay [2], 0.852 µM; in assay [3], 0.183 µM; in [4] it was 3.34 µM; in assay [5] it was 0.28 µM; in assay [6], 0.274 µM. Besides, the GI50 in assay [7] was 0.0557 µM; in assay [8], 0.61 µM; in [9] it was 0.28 µM; in [10], more than 20.9 µM. Further, the TGI in assay [1] is 12.2 µM; in assay [2] it was 12.6 µM; in assay [3] it was more than 100 µM; in [4], more than 49.4 µM; in assay [5], 1.83 µM; in assay [6] it was 21.8 µM. Besides, the TGI in assay [7] was more than 61.6 µM; in [8], 9.48 µM; in [9], 1.31 µM; in assay [10], more than 100 µM.
For the molecule `CCN1C(=O)N(CC)C2C1NN=c1s/c(=C\c3ccc([N+](=O)[O-])cc3)c(=O)n12` (stereo not given), the GI50 in [1] is 0.172 µM; in assay [2], 0.395 µM; in [3], 0.411 µM; in assay [4], 0.394 µM; in [5] it was 0.342 µM; in assay [6] it was 0.323 µM. In addition, the GI50 in assay [7] is 0.449 µM; in assay [8], 1.93 µM; in assay [9], 0.343 µM; in [10] it was 0.385 µM. Further, the TGI in assay [1] is 0.704 µM; in assay [2] it was more than 46.4 µM; in assay [3], more than 46.7 µM; in assay [4], more than 100 µM; in assay [5], more than 100 µM; in [6], 6.94 µM. The TGI was more than 38.9 µM in assay [7], more than 100 µM in [8], 12.1 µM in assay [9] and more than 66.4 µM in assay [10].
`CC1OC(OC2C(OC3CCC4(C)C(CCC5(C)C4CC=C4C6CC(C)(C)CCC6(CO)C(O)CC45C)C3(C)C)OC(C(=O)O)C(OC3OC(COC4OC(CO)C(O)C(O)C4O)C(O)C(O)C3O)C2O)C(O)C(O)C1O` (stereo not given): the GI50 in assay [1] is 13.2 µM; in assay [2], 10.6 µM; in assay [3], 3.88 µM; in assay [4], 8.27 µM; in assay [5] it was 3.25 µM; in assay [6], 1.43 µM. Also, the GI50 in assay [7] was 7.79 µM; in assay [8] it was 1.96 µM; in assay [9], 11.5 µM; in assay [10], 1.97 µM. For the same molecule, the TGI in [1] was determined as 23.9 µM; in [2], 22.1 µM; in assay [3], 20.7 µM; in assay [4] it was 18.8 µM; in assay [5], 14.1 µM; in assay [6] it was 2.95 µM. Besides, the TGI is 23.5 µM in [7], 9.02 µM in assay [8], 22.2 µM in assay [9] and 5.63 µM in assay [10].
For the molecule `Cc1nc(N=C(N)N)nc2ccc3ccccc3c12`, the GI50 is 1.54 µM in [1]; 2.5 µM in assay [2]; 1.76 µM in assay [3]; 2.99 µM in assay [4]; 1.03 µM in assay [5]; 1.04 µM in [6]. In addition, the GI50 in assay [7] was 2.53 µM; in assay [8], 1.53 µM; in assay [9], 1.51 µM; in assay [10], 0.423 µM. The TGI in assay [1] worked out at 3.23 µM; in assay [2], 10.9 µM; in assay [3], 6.01 µM; in assay [4] it was 14.1 µM; in assay [5], 4.37 µM; in assay [6], 2.5 µM. Moreover, the TGI in assay [7] was found to be 7.36 µM; in assay [8], 3.71 µM; in [9], 3.32 µM; in [10], 2.26 µM.
